These are literature values, as cited in patent US11701406B2 (The Board of Trustees of the Leland Stanford Junior …, priority 2017, dated 2023).

The data set addresses T1, NEDD8 activating enzyme (NAE) (Homo sapiens, UniProt Q8TBC4).
T1 sequence (Q8TBC4 2-463 limits assumed): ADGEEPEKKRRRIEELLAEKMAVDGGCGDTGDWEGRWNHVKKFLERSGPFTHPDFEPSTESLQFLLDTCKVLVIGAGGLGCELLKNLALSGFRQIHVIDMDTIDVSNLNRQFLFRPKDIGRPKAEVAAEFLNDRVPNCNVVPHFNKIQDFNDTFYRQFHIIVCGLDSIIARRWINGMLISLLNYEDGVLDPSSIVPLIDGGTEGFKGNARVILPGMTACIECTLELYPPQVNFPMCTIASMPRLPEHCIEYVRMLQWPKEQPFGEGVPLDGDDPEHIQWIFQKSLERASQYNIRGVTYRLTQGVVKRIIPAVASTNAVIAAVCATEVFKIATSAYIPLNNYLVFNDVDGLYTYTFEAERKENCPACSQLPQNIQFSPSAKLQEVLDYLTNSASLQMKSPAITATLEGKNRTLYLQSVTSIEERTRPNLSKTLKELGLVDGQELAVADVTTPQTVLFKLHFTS
T1 sequence (Q13564 2-534 partner limits assumed): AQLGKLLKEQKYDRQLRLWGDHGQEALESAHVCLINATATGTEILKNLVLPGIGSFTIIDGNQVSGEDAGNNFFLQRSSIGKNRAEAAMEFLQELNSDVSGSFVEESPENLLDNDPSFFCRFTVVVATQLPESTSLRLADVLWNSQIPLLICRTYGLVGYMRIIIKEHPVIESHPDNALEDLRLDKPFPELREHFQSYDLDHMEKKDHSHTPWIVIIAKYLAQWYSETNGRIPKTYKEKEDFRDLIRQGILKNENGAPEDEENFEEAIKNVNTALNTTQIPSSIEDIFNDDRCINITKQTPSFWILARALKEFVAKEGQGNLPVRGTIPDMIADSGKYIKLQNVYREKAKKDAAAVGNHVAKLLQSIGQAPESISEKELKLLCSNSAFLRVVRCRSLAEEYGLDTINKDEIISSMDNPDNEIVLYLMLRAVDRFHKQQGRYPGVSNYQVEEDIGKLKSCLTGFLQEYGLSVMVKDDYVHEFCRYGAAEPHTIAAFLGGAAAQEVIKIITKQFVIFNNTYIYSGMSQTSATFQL
As to conditions: read-out: IC50 (Activity, Inhibitors of NAE).
The IC50 is the concentration at which inhibition is half-maximal. Regarding `CCN1CCN(C(=O)N[C@@H](C(=O)N[C@@H]2C(=O)N3C2SC(C)(C)[C@@H]3C(=O)O)c2ccccc2)C(=O)C1=O` (stereo partly drawn) [Piperacillin], the half-inhibitory concentration (IC50) was 1 µM. Take `CN1CCOc2c1ccc(F)c2C#Cc1cn([C@@H]2C[C@@H](CCS(N)(=O)=O)[C@@H](O)[C@H]2O)c2ncnc(N)c12` [TAS 2]: the IC50 is 0.02 µM. Take `Nc1ccc(SCC(=O)Nc2ccc3nc(NC(=O)c4ccc(C(F)(F)F)cc4)sc3c2)cc1`: the IC50 was 0.1 µM.

In the case of `Clc1ccc(CCNC2CCN(Cc3ccccc3)CC2)c(Cl)c1` [M22], the IC50 is 9 µM. With `CN1CCOc2c1ccc(F)c2C#Cc1cn([C@@H]2O[C@@H](CCS(N)(=O)=O)[C@@H](O)[C@H]2O)c2ncnc(N)c12` [TAS 1], the IC50 is 0.001 µM. For the compound MLN7243, the IC50 is 0.001 µM.
